PMC4684281, “Antitumor Effects and Mechanism of Novel Emodin Rhamnoside Derivatives against Human Cancer Cells In Vitro” (PLoS ONE, 2015)
Values after ≈ are worked out from the molar mass of the structure shown.

What was measured:
[1] = test system: A549 cells; experiment: MTT cell viability assay, A549; assay type: cell-based, Human; conditions: Homo sapiens, A549; MTT, 72 hours; read-out: IC50 values, A549
Procedure: (§1) The viability of cancer cells was evaluated by MTT assay. Briefly, cells were inoculated in 96-well culture plates at the density of 1×10^4/well with complete medium containing 10% fetal calf serum in a final volume of 0.2 mL. Cells were incubated at 37°C for at least 24 hours to allow optimal attachment. When the cells reached 60% confluence, they were treated with Cisplatin, HCPT and emodin rhamnopyranosides derivatives in various concentrations, and incubated in a humidity-controlled 5%CO2 incubator at 37°C for 72 hours. Medium were exchanged once every 24 hours. Cell control group and blank group were set up in the same manner, with each group having six parallel wells. Cell survival was assessed by directly adding 22 μL of 5mg/mL MTT to 0.2 mL medium. After three hours, the formazan precipitate was dissolved in 200μL isopropanol per well, and completely mixed under room temperature. Afterwards, the optical density of each well was detected at 570 nm wavelength by iMark microplate reader (Bio-rad,USA). This experiment was repeated at least three times.

[2] = test system: HepG2 cells; experiment: MTT cell viability assay, HepG2; assay type: cell-based, Human; conditions: Homo sapiens, HepG2; MTT, 72 hours; read-out: IC50 values, HepG2
Procedure: as §1

[3] = test system: OVCAR-3 cells; experiment: MTT cell viability assay, OVCAR-3; assay type: cell-based, Human; conditions: Homo sapiens, OVCAR-3; MTT, 72 hours; read-out: IC50 values, OVCAR-3
Procedure: as §1

[4] = test system: HeLa cells; experiment: MTT cell viability assay, HeLa; assay type: cell-based, Human; conditions: Homo sapiens, HeLa; MTT, 72 hours; read-out: IC50 values, HeLa
Procedure: as §1

[5] = test system: MDCK cells; experiment: MTT cell viability assay, MDCK; assay type: cell-based, Canine; conditions: Canis lupus familiaris, 72 hours
Procedure: as §1

[6] = test system: HepG2 cells; experiment: Fluorescence microscopy assay (Hoechst 33342); assay type: cell-based, Human
Procedure: HepG2 cells were inoculated in duplicate at 3×10^5/well density in 6-well plate, and allowed to attach at 37°C for 24 hours. Afterwards, cells were treated with 10 μM HCPT, 25 μM emodin and specific concentration EM-d-Rha (0.1μM, 0.5μM, 2.5μM), respectively. Cell control group was set in the same way. […] Medium were exchanged as described previously. In the end, all medium were discarded and cells were digested with 2mL 0.25% Trypsin-EDTA solution at 37°C for 5 min. After cells were harvested, cells were washed with PBS twice followed by centrifuging at 300×g for 5 minutes. Finally, cells were re-suspended in 100μL cold PBS after the supernatant was discarded. Cells were cultured in the dark for 10 minutes at room temperature after adding 100μL 1mg/mL Hoechst 33342 staining solution. Cells were harvested again as described previously to discard the staining solution. Wash the harvested cells twice with PBS before applying to the clean glass slides. The morphological changes of cells nuclei were observed and photographed under the fluorescence microscope (Olympus, Japan) at 350 nm excitation wavelength. The experiment was repeated three times.

[7] = Solubility (structure-activity remark); assay type: physicochemical; conditions: one rhamnose introduced into emodin

| IC50 [1] | IC50 [2] | IC50 [3] | IC50 [4] | Solubility of derivative relative to emodin [7] | Compound | IC50 [5] | Nuclear morphology, Hoechst 33342 ([6]; HepG2, 25μM) | Nuclear morphology, Hoechst 33342 ([6]; HepG2, 2.5μM, 48h) |
| --- | --- | --- | --- | --- | --- | --- | --- | --- |
| 2.25 µg/mL (≈ 4.91 µM) | > 20 µg/mL | > 20 µg/mL | > 20 µg/mL |  | CC(=O)O[C@@H]1[C@@H](O)[C@@H](O)[C@H](Oc2cc(O)c3c(c2)C(=O)c2cc(C)cc(O)c2C3=O)O[C@H]1C [S-6] | 21.1 µg/mL (≈ 46 µM) |  |  |
| 9.27 µg/mL (≈ 18.5 µM) | > 20 µg/mL | > 20 µg/mL | > 20 µg/mL |  | CC(=O)O[C@@H]1[C@@H](O)[C@@H](OC(C)=O)[C@H](Oc2cc(O)c3c(c2)C(=O)c2cc(C)cc(O)c2C3=O)O[C@H]1C [S-4] | > 20 µg/mL |  |  |
| > 20 µg/mL | > 20 µg/mL | > 20 µg/mL | > 20 µg/mL | improved | CC(=O)O[C@@H]1[C@@H](O)[C@H](C)O[C@@H](Oc2cc(O)c3c(c2)C(=O)c2cc(C)cc(O)c2C3=O)[C@@H]1OC(C)=O [S-3] | > 20 µg/mL |  |  |
| 3.16 µg/mL (≈ 6.31 µM) | 1.32 µg/mL (≈ 2.64 µM) | > 20 µg/mL | 5.34 µg/mL (≈ 10.7 µM) |  | CC(=O)O[C@@H]1[C@@H](OC(C)=O)[C@@H](O)[C@H](Oc2cc(O)c3c(c2)C(=O)c2cc(C)cc(O)c2C3=O)O[C@H]1C [S-5] | 14.8 µg/mL (≈ 29.6 µM) |  |  |

Continued, molecule first:

| Compound | IC50 [1] | IC50 [2] | IC50 [3] | IC50 [4] | Solubility of derivative relative to emodin [7] | IC50 [5] | Nuclear morphology, Hoechst 33342 ([6]; HepG2, 25μM) | Nuclear morphology, Hoechst 33342 ([6]; HepG2, 2.5μM, 48h) |
| --- | --- | --- | --- | --- | --- | --- | --- | --- |
| COc1cc(C)cc2c1C(=O)c1c(OC)cc(O[C@@H]3O[C@@H](C)[C@H](O)[C@@H](OC(C)=O)[C@H]3OC(C)=O)cc1C2=O [S-9] | 3.63 µg/mL (≈ 6.87 µM) | 4.43 µg/mL (≈ 8.38 µM) | 9.72 µg/mL (≈ 18.4 µM) | 4.93 µg/mL (≈ 9.33 µM) |  | 1.39 µg/mL (≈ 2.63 µM) |  |  |
| Cc1cc(O)c2c(c1)C(=O)c1cc(O)cc(O)c1C2=O [S-1, 3-methyl-1,6,8-trihydroxyanthraquinone, reference compound] | 19.5 µg/mL (≈ 72.3 µM) | 12.8 µg/mL (≈ 47.3 µM) | 25.8 µg/mL (≈ 95.5 µM) | 12.1 µg/mL (≈ 44.9 µM) |  | 5.81 µg/mL (≈ 21.5 µM) | displayed apoptotic morphological changes |  |
| Cc1cc(O)c2c(c1)C(=O)c1cc(O[C@@H]3O[C@@H](C)[C@H](O)[C@@H](O)[C@H]3O)cc(O)c1C2=O [S-2] | > 20 µg/mL | > 20 µg/mL | > 20 µg/mL | > 20 µg/mL |  | > 20 µg/mL |  |  |
| CC[C@@]1(O)C(=O)OCc2c1cc1n(c2=O)Cc2cc3cc(O)ccc3nc2-1 [HCPT] |  |  |  |  |  |  |  | typical apoptotic nuclear morphology |
